Assay results published in US20040214893A1, “Gabapentin compositions” (priority 2003, published 2004).

Test: pH of aqueous solution of the crystalline salt
Type: physicochemical
Conditions: 14.00 mg crystalline salt in 140 microliters of water
Protocol: Gabapentin (0.55857 g) and ethanedisulfonic acid (0.62940 g) were transferred into a 20 mL scintillation vial. Water (1.5 mL) was added and the mixture was heated to 85 deg. C. to dissolve all of the solids. The solution was filtered through a 0.2 micron filter into a new 20 mL scintillation vial. The vial was capped and placed in the refrigerator (2-4 deg. C.) for 2 hours. The resulting crystals were collected by vacuum filtration (345.83 mg) and analyzed by PXRD. Upon analysis, the crystals were determined to be gabapentin ethanedisulfonic acid salt. A small amount of the crystalline salt (14.00 mg) was weighted into a 3 mL vial and 140 microliters of water was added. The pH of the resulting solution was determined to be 1.2. […] The salt can be characterized by any one, any two, any three, any four, any five, or any six or more of the peaks in FIG. 13 including, but not limited to, 6.0, 11.51, 15.11, 16.17, 17.31, 17.85, 19.73, 20.19, 22.21, 24.63, 26.73, and 28.47 degrees 2-theta.

In the case of gabapentin ethanedisulfonic acid salt, the “pH of the resulting solution” value is reported as 1.2.
